Data as given in patent publication US10703748B2, “Diazanaphthalen-3-yl carboxamides and preparation and use thereof” (Samumed, LLC, priority 2017, dated 2020).
pEC50: −log10 of the molar value. Where two headings read alike, the source gives them in different places.

Legend:
DYRK1A kinase = DYRK1A kinase (Homo sapiens, UniProt Q13627); experiment: DYRK1A kinase activity (Ser/Thr 18 peptide Z-lyte FRET assay); assay type: biochemical; settings: recombinant DYRK1A, 30 μM ATP, one hour at room temperature;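 note: kinase activity read as coumarin/fluorescein emission ratio after development step, with unphosphorylated and phosphorylated peptide forms setting 0% and 100% controls, values from dose-response curves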
GSK3β kinase = GSK3β kinase (Homo sapiens, UniProt P49841); experiment: GSK3β kinase activity (Ser/Thr 09 peptide Z-lyte FRET assay); assay type: biochemical; settings: recombinant kinase, 46 μM ATP, one hour at room temperature; read-out: EC50
Sequence of GSK3β kinase (P49841 whole entry): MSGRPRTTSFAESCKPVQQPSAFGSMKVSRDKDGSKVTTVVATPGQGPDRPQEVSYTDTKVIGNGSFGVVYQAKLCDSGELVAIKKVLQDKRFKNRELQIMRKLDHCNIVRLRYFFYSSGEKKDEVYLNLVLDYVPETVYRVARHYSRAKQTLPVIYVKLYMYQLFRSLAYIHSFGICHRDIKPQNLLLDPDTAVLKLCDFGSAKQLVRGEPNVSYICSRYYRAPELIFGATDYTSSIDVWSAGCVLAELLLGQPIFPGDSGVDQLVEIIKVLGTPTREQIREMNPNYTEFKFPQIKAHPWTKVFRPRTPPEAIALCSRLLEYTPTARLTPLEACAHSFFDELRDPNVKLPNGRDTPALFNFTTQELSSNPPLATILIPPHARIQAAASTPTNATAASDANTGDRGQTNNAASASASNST

[1] = system: Tau phosphorylation at Ser396 (pSer396); experiment: Tau phosphorylation at Ser396 (pSer396) in SH-SY5Y cells, ELISA / western blot; assay type: cell-based, human; settings: Homo sapiens;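 note: decrease in pSer396 Tau measured in lysates of treated cells by colorimetric ELISA or chemiluminescent western blot, same pSer396 antibody for both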
Description: Two days before treatment, cells were seeded onto 96 well plates at 5×10^4 cells/well.
The above synthesized compounds were screened using the cell assay procedure to assess decrease Tau phosphorylation at Ser396 (pSer396) described below.
Cells were lysed with RIPA buffer complemented with phosphatase and protease inhibitors then lysates were spun down at 12,000 g for 10 min to remove any cellular debris.

[2] = system: SW480 colon carcinoma cells; experiment: Cell viability assay (CellTiter-Glo); settings: Homo sapiens; for pEC50: SW480, 96 h; for inhibition at 10 µM: SW480, read-out: percent inhibition at 10 μM
[3] = system: Wnt-responsive Sp5-Luc reporter in SW480 colon carcinoma cells; experiment: Screening assay for Wnt activity (Sp5-Luc reporter gene assay); settings: Homo sapiens; for pEC50: SW480; for inhibition at 10 µM: SW480, read-out: percent inhibition at 10 μM
IL-6 = IL-6 inhibition in LPS-stimulated human peripheral blood mononuclear cells (HTRF); settings: Homo sapiens, PBMC; for pEC50: 22 h; for inhibition at 10 µM: read-out: percentage in parentheses after EC50 >10
Description: Each compound was dissolved in DMSO (Catalog # D8418-100 ml, Sigma-Aldrich, St. Louis, Mo.) as a 10 mM stock and used to prepare compound source plates. […] After 22 hour incubation, a mixture of anti-IL6 XL665 and anti-IL-6 Cryptate diluted in reconstitution buffer (Catalog #62IL6PEC, Cisbio Inc., Bedford, Mass.) was added to each well. […] All samples were processed in duplicate. […] EC50 was determined using software generated by Dotmatics Limited (Windhill Bishops Stortford Herts, UK) using the Levenberg-Marquardt 4 parameter fitting procedure with finite different gradients.

[4] = system: α-smooth muscle actin (aSMA) positive LL29 cells; experiment: Inhibition of the fibrotic process: αSMA staining in TGF-β1 treated LL29 fibroblasts from IPF patients; settings: Homo sapiens, Fibroblast; for pEC50: 96 h; for inhibition at 10 µM: read-out: percentage in parentheses after EC50 >10
Description: Each compound was dissolved in DMSO as a 10 mM stock and used to prepare compound source plates. […] LL29 cells were plated at 1,500 cells/well in 70 μL/well F12 medium supplemented with 1% Fetal Bovine Serum. […] Wells treated with TGF-β1 and containing DMSO were used as positive control, and cells with only DMSO were negative control. Cells were incubated at 37° C. and 5% CO2 for 4 days. Following incubation for 4 days, SYTOX green nucleic acid stain (Life Technologies [Thermo Fisher Scientific]) was added to the wells at a final concentration of 1 μM and incubated at room temperature for 30 min. Cells were then fixed using 4% formaldehyde (Electron Microscopy Sciences), washed 3 times with PBS followed by blocking and permeabilization using 3% Bovine Serum Albumin (BSA; Sigma) and 0.3% Triton X-100 (Sigma) in PBS.

[5] = system: secreted cytokines TNFα, IL-6 and KC-GRO; experiment: Secreted cytokines in Lipopolysaccharide-stimulated BV-2 cells (Table 9 does not say which cytokine); assay type: cell-based, mouse; settings: Mus musculus, BV-2, 5 h; read-out: EC50
Description: BV-2 cells (mouse microglial cells) were cultured in 1:1 DMEM medium supplemented with 10% FBS, and 1% penicillin/streptomycin.
BV-2 cells are plated at 35,000 cells/well in a volume of 100 μl for at least 4 hours before compounds are added. […] Compounds were added to cells overnight. […] Supernatant is removed and saved for further cytokine detection. The original plates with seeded cells were tested for cytotoxicity by measure of adenosine triphosphate (ATP) release by adding CellTiter-Glo® diluted 1:4 in distilled water (G7573, Promega) and transferring lysed cells to a completely black 96-well plate to be read with the Cytation3. Supernatant was then diluted 1:2 with a diluent from V-PLEX cytokine Kit and directly tested for the secreted cytokines TNFα, IL-6 and KC-GRO using electrochemiluminescence (Meso Scale Discovery). The standard curve for each cytokine was used to convert the electrochemiluminescent signal into pg of protein per mL.

[6] = SH-SY5Y cells, overnight (16-18 h), read-out: pSer396 Tau EC50

Row | SMILES | pEC50 (DYRK1A kinase) | pEC50 (GSK3β kinase) | pEC50 [1, 6] | pEC50 [2] | inhibition at 10 µM [2] | pEC50 [3] | pEC50 (IL-6) | inhibition at 10 µM (IL-6) | pEC50 [4] | inhibition at 10 µM [4] | inhibition at 10 µM [3] | pEC50 [5] | pEC50 ([1]; SH-SY5Y, read-out: EC50 in the Tau assay)
1 | COC1CCN(CC(=O)Nc2cc3nc(-c4cn(C)nn4)ccc3cn2)CC1 [Compound 358, 2-(4-Methoxypiperidin-1-yl)-N-(2-(1-methyl-1H-1,2,3-triazol-4-yl)-1,6-naphthyridin-7-yl)acetamide] | 6.44 | 6.25 | 5.82 | < 5.00 | 38% | 6.72 | < 5.00 | 2% | < 5.00 | 9.8% | – | – | –
2 | Cc1ncc(-c2ccc3cnc(NC(=O)Cn4ccnc4)cc3n2)o1 [Compound 589, 2-(1H-Imidazol-1-yl)-N-(2-(2-methyloxazol-5-yl)-1,6-naphthyridin-7-yl) acetamide] | 7.30 | 6.81 | 5.00 | < 5.00 | 22.9% | < 5.00 | < 5.00 | 5.9% | < 5.00 | 41.6% | 7.8% | – | –
3 | C[C@H]1CCCN1CC(=O)Nc1ncc2ccc(-c3cnn(C)c3)cc2n1 [Compound 954, (S)—N-(7-(1-Methyl-1H-pyrazol-4-yl)quinazolin-2-yl)-2-(2-methylpyrrolidin-1-yl)acetamide] | 7.16 | 6.71 | 5.77 | < 5.00 | 45.1% | < 5.00 | < 5.00 | 5.7% | 5.67 | – | 29.6% | – | –
4 | COC1CCN(CC(=O)Nc2ncc3ccc(-c4cn(C)nn4)cc3n2)CC1 [Compound 1264, 2-(4-Methoxypiperidin-1-yl)-N-(7-(1-methyl-1H-1,2,3-triazol-4-yl)quinazolin-2-yl)acetamide] | 7.37 | 7.77 | 6.04 | < 5.00 | 27.8% | 5.01 | < 5.00 | 7.9% | < 5.00 | 5.7% | – | – | –
5 | CC(C)OCCC(=O)Nc1ncc2ccc(-c3cncn3C)cc2n1 [Compound 1322, 3-Isopropoxy-N-(7-(1-methyl-1H-imidazol-5-yl)quinazolin-2-yl)propanamide] | 7.28 | 7.03 | 6.77 | < 5.00 | 22.2% | 5.93 | < 5.00 | 5.9% | 5.70 | – | – | – | –
6 | CN1CCN(c2cc(C(=O)Nc3cc4cc(-c5cncs5)ncc4cn3)ccn2)CC1 [Compound 4257, 2-(4-Methylpiperazin-1-yl)-N-(6-(thiazol-5-yl)-2,7-naphthyridin-3-yl) isonicotinamide] | 8.22 | 5.79 | – | 5.61 | – | 5.39 | < 5.00 | 5.3% | 5.60 | – | – | 6.20 | –
7 | CO[C@H]1CC[C@H](C(=O)Nc2cc3cc(-c4nnc(C)s4)ncc3cn2)CC1 [Compound 4332, trans-4-Methoxy-N-(6-(5-methyl-1,3,4-thiadiazol-2-yl)-2,7-naphthyridin-3-yl)cyclohexane-1-carboxamide] | 7.32 | 6.08 | – | < 5.00 | 16.5% | < 5.00 | < 5.00 | 0% | < 5.00 | 23.6% | 9.6% | < 5.00 | –
8 | Nc1cncc(-c2cc3cc(NC(=O)c4ccc(OC5CCNCC5)cc4)ncc3cn2)c1 [Compound 4431, N-(6-(5-Aminopyridin-3-yl)-2,7-naphthyridin-3-yl)-4-(piperidin-4-yloxy) benzamide] | 8.52 | 5.42 | – | 5.50 | – | 5.55 | < 5.00 | 3.6% | 5.60 | – | – | 7.40 | –
9 | CN1CCN(c2cc(C(=O)Nc3cc4cc(-c5ccc(N)nc5)ncc4cn3)ccn2)CC1 [Compound 4434, N-(6-(6-Aminopyridin-3-yl)-2,7-naphthyridin-3-yl)-2-(4-methylpiperazin-1-yl)isonicotinamide] | 7.92 | < 5.00 | – | 5.29 | – | 5.07 | 5.01 | – | 5.80 | – | – | 5.02 | –
10 | CN1CCC(n2cc(C(=O)Nc3cc4cc(-c5cncc6[nH]ccc56)ncc4cn3)cn2)CC1 [Compound 4523, N-(6-(1H-Pyrrolo[2,3-c]pyridin-4-yl)-2,7-naphthyridin-3-yl)-1-(1-methylpiperidin-4-yl)-1H-pyrazole-4-carboxamide] | 8.00 | < 5.00 | – | 6.29 | – | 6.14 | 5.49 | – | 5.62 | – | – | 5.89 | –
11 | CN1CCC(Nc2cc(C(=O)Nc3cc4nc(-c5cnn(C)c5)ccc4cn3)ccn2)CC1 [Compound 4538, N-(2-(1-Methyl-1H-pyrazol-4-yl)-1,6-naphthyridin-7-yl)-2-((1-methylpiperidin-4-yl)amino)isonicotinamide] | 8.52 | < 5.00 | – | 6.02 | – | 6.56 | 5.46 | – | 6.15 | – | – | 7.33 | –
12 | CN1CCN(c2ncc(C(=O)Nc3cc4nc(-c5cnn(C)c5)ccc4cn3)s2)CC1 [Compound 4539, N-(2-(1-Methyl-1H-pyrazol-4-yl)-1,6-naphthyridin-7-yl)-2-(4-methylpiperazin-1-yl)thiazole-5-carboxamide] | 8.70 | 5.65 | – | 6.11 | – | 6.52 | < 5.00 | 37.4% | 5.96 | – | – | 7.10 | –
13 | O=C(Nc1cc2nc(-c3cnco3)ccc2cn1)[C@H]1CC[C@H](CO)CC1 [Compound 4548, trans-4-(Hydroxymethyl)-N-(2-(oxazol-5-yl)-1,6-naphthyridin-7-yl) cyclohexane-1-carboxamide] | 7.72 | 6.11 | – | < 5.00 | 29.8% | < 5.00 | < 5.00 | 3.2% | < 5.00 | 50% | – | 6.40 | –
14 | O=C(Nc1cc2nc(-c3cnco3)ccc2cn1)c1ccc(OC2CCNCC2)cc1 [Compound 4551, N-(2-(Oxazol-5-yl)-1,6-naphthyridin-7-yl)-4-(piperidin-4-yloxy)benzamide] | 8.30 | 5.37 | – | 5.98 | – | 5.99 | 5.52 | – | 6.49 | – | – | 6.40 | –
15 | CN1CCN(c2ncc(C(=O)Nc3ncc4ccc(-c5cnn(C)c5)cc4n3)s2)CC1 [Compound 4570, N-(7-(1-Methyl-1H-pyrazol-4-yl)quinazolin-2-yl)-2-(4-methylpiperazin-1-yl) thiazole-5-carboxamide] | 8.52 | 5.66 | – | 5.25 | – | 5.49 | < 5.00 | 18.4% | < 5.00 | 5.5% | – | 6.89 | –
16 | Cc1nnc(-c2ccc3cnc(NC(=O)CN4C[C@@H]5C[C@H]4CO5)nc3c2)s1 [Compound 4593, 2-((1S,4S)-2-Oxa-5-azabicyclo[2.2.1]heptan-5-yl)-N-(7-(5-methyl-1,3,4-thiadiazol-2-yl)quinazolin-2-yl)acetamide] | 6.88 | 7.47 | – | < 5.00 | 27.4% | < 5.00 | < 5.00 | 4.8% | < 5.00 | 41.4% | 32.8% | 5.60 | –
17 | Cc1cn2c(n1)CN(C(=O)Nc1cc3cc(-c4cnco4)cnc3cn1)CC2 [Compound 4615] | 7.57 | 5.11 | – | 5.57 | – | 5.42 | < 5.00 | 5.8% | < 5.00 | 35.6% | – | 6.56 | –
18 | Cc1ncc(-c2cnc3cnc(NC(=O)C4CCN(C5COC5)CC4)cc3c2)s1 [Compound 4622, N-(3-(2-methylthiazol-5-yl)-1,7-naphthyridin-6-yl)-1-(oxetan-3-yl)piperidine-4-carboxamide] | 7.40 | 5.33 | – | < 5.00 | 27.9% | < 5.00 | < 5.00 | 2.3% | < 5.00 | 29.4% | 50% | 5.85 | –
19 | COc1ccc2c(c1)[nH]c1c(C)nccc12 [Harmine, reference compound] | – | – | – | – | – | – | – | – | – | – | – | – | < 5.00
